# Reference: patent US20140329844A1, “METHOD OF RESTORING THE INCRETIN EFFECT” (NEURENDO PHARMA, LLC, priority 2006, published 2014)
# Several values for one entry are separate records, joined by “and”; a condition that tells them apart may be missing. Identical values can stand only once.
# Assays:
# [1] = Daily blood glucose profile of a subject with early stage Type 2 diabetes during GNTI administration; assay type: in vivo; conditions: human; for Average blood glucose by day of week / Readings In Target, 65-155 (as %) / Readings Lows, 51-64 (as %): GNTI once weekly
# Procedure: The daily blood glucose profile of a subject with early stage, [non-insulin dependent] Type 2 diabetes was monitored during extended periods of administration of guanidinylated naltrindole (GNTI).
# A weekly dose of about 70 ng/kg was administered.
# FIGS. 1-3 illustrate the blood glucose readings over an extended period of time, a modal week and a modal day. The target blood glucose range was 65-155 mg/dL. Table 3 illustrates that 98% of the readings were within the target range. The other 2% of the readings fell below the target range and fell between 51-64 mg/dL.
# FIGS. 1-3 illustrate the subject's blood glucose readings over an extended period of time, a modal week, and a modal day. Accordingly, 227 blood glucose readings were taken, averaging 92 mg/dL over a 15 day period. 98% of all readings were between 65 and 127 mg/dL, and 2% between […], representing a very narrow overall spread.
# [2] = Weight (BMI) of the subject with early stage Type 2 diabetes during GNTI administration; assay type: in vivo; conditions: human, extended periods of GNTI administration
# From the text: The weight of the subject with early stage Type 2 diabetes mellitus was also monitored during extended periods of administration on GNTI, decreasing from, a baseline body mass index (BMI) of 25 to an average BMI of 22.8, corresponding to a reduction by about 9%.
# [3] = Meal tolerance test (MTT) in metabolically impaired rhesus monkeys treated with GNTI; assay type: in vivo, rhesus monkey; conditions: for BG / GIP / GLP-1 / Glucagon / Insulin / Glucagon Change T0-T60/120: individual animals
# Procedure: To test for the effect of physiological first phase insulin secretion, a meal tolerance test (MTT) was developed. The meal tolerance test involved oral administration of meal based nutrients within suitable ratios of carbohydrates, proteins and fats. The ratios used for the given example were 70% carbohydrates, 8% protein and 22% fats. […] Following MTV administration, the same readings were taken at time points of 3-9 minutes to test for first-phase insulin secretion and the subsequent reduction in blood glucose. It was determined that a first-phase insulin secretion dependent slight increase in insulin concentration appeared, typically, at 5 minutes post MTT administration, followed by a corresponding blood glucose decrease at 7 minutes. A slight decrease in glucagon levels was also coupled with first-phase insulin secretion at 5 minutes. The MTT serves as a corollary to the intravenous glucose tolerance test (MITT) and better measures first-phase insulin secretion because oral administration of nutrients has a more direct effect on the incretin effect.
# Table 7 illustrates administration of the MTT to two rhesus monkeys categorized as metabolically “normal’ based on “normal” fasting blood glucose values. The monkeys were given a diet of 55-60% carbohydrates, 15-25% protein, and 15-30% fat. Readings of blood glucose, insulin, and glucagon were taken at time points 0, 5, 7, 60 and 120 minutes. Additionally, at the same time points, the incretin hormones, GIP and GLP-1 were measured to more directly measure the incretin effect. […] Comparison of blood glucose levels at time points 0 and 120 minutes illustrates that normal metabolic functioning has returned the subject's blood glucose levels to normal within 120 minutes of MTT administration.
# Table 8 illustrates the effect of GNTI on physiologic control of glucagon Baseline readings were taken on Day 1 of blood glucose, insulin, glucagon, GIP, and GLP-1 in metabolically impaired rhesus monkeys as determined through administration of the MTT. Cumulative in-situ doses of 45 ng/kg and 95 ng/kg were active on day 5 and day 7, respectively, during administration of the MTT. Readings of blood glucose, insulin, glucagon, GIP, and GLP-1 were taken at time points 0, 60 minutes and 120 minutes.
# [4] = GNTI about 70 ng/kg weekly, Early AM 00:00-04:59
# [5] = GNTI about 70 ng/kg weekly, Evening 15:00-18:59
# [6] = GNTI about 70 ng/kg weekly, Midday 11:00-14:59
# [7] = GNTI about 70 ng/kg weekly, Morning 05:00-10:59
# [8] = GNTI about 70 ng/kg weekly, Night 19:00-23:59
# [9] = GNTI about 70 ng/kg weekly, all readings, 15 day period
# [10] = GNTI about 70 ng/kg weekly, of 227 readings
# [11] = GNTI about 70 ng/kg weekly, overall
# [12] = early stage Type 2 diabetes, GNTI about 70 ng/kg weekly, 15 days
# [13] = Day 5, GNTI 45 ng/kg cumulative, MTT TP 0 min
# [14] = Day 5, GNTI 45 ng/kg cumulative, MTT TP 60 min
# [15] = Day 5, GNTI 45 ng/kg cumulative, MTT TP 120 min
# [16] = Day 7, GNTI 95 ng/kg cumulative, MTT TP 0 min
# [17] = Day 7, GNTI 95 ng/kg cumulative, MTT TP 60 min
# [18] = Day 7, GNTI 95 ng/kg cumulative, MTT TP 120 min
compound,measurement,setting,value
"NC(N)=Nc1ccc2[nH]c3c(c2c1)C[C@@]1(O)[C@H]2Cc4ccc(O)c5c4[C@@]1(CCN2CC1CC1)[C@H]3O5 [GNTI, guanidinylated naltrindole]",Average blood glucose,[1]; [4],79 mg/dL
same,"Readings In Target, 65-155 mg/dL",[1]; [4],100%
same,Average blood glucose,[1]; [5],91 mg/dL
same,"Readings In Target, 65-155 mg/dL",[1]; [5],100%
same,Average blood glucose,[1]; [6],92 mg/dL
same,"Readings In Target, 65-155 mg/dL",[1]; [6],98%
same,"Readings Lows, 51-64 mg/dL",[1]; [6],2%
same,Average blood glucose,[1]; [7],90 mg/dL
same,"Readings In Target, 65-155 mg/dL",[1]; [7],97%
same,"Readings Lows, 51-64 mg/dL",[1]; [7],3%
same,Average blood glucose,[1]; [8],95 mg/dL
same,"Readings In Target, 65-155 mg/dL",[1]; [8],97%
same,"Readings Lows, 51-64 mg/dL",[1]; [8],3%
same,Readings between 61 and 65 mg/dL,[1]; [9],2%
same,Readings between 65 and 127 mg/dL,[1]; [9],98%
same,Number of readings High (156-300 mg/dL),[1]; [10],0
same,Number of readings Low (51-64 mg/dL),[1]; [10],5
same,Number of readings Target (65-155 mg/dL),[1]; [10],222
same,Number of readings Very High (301-601 mg/dL),[1]; [10],0
same,Number of readings Very Low (0-50 mg/dL),[1]; [10],0
same,Percent of readings High (156-300 mg/dL),[1]; [11],0%
same,Percent of readings Very High (301-601 mg/dL),[1]; [11],0%
same,Percent of readings Very Low (0-50 mg/dL),[1]; [11],0%
same,"Readings In Target, 65-155 mg/dL",[1]; [11],98%
same,"Readings Lows, 51-64 mg/dL",[1]; [11],2%
same,Readings in the hypoglycemic range,"[1]; GNTI about 70 ng/kg weekly, readings below target range",none of these readings were in the hypoglycemic range
same,Average blood glucose by day of week,[1]; Fri,96 mg/dL
same,"Readings In Target, 65-155 (as %)",[1]; Fri,100%
same,Average blood glucose by day of week,[1]; Mon,92 mg/dL
same,"Readings In Target, 65-155 (as %)",[1]; Mon,100%
same,Average blood glucose by day of week,[1]; Sat,92 mg/dL
same,"Readings In Target, 65-155 (as %)",[1]; Sat,100%
same,Average blood glucose by day of week,[1]; Sun,92 mg/dL
same,"Readings In Target, 65-155 (as %)",[1]; Sun,100%
same,Average blood glucose by day of week,[1]; Thur,94 mg/dL
same,"Readings In Target, 65-155 (as %)",[1]; Thur,100%
same,Average blood glucose by day of week,[1]; Tue,87 mg/dL
same,"Readings In Target, 65-155 (as %)",[1]; Tue,87%
same,"Readings Lows, 51-64 (as %)",[1]; Tue,13%
same,Average blood glucose by day of week,[1]; Wed,88 mg/dL
same,"Readings In Target, 65-155 (as %)",[1]; Wed,93%
same,"Readings Lows, 51-64 (as %)",[1]; Wed,7%
same,Average blood glucose by day of week,[1]; Weekdays,92 mg/dL
same,"Readings In Target, 65-155 (as %)",[1]; Weekdays,97%
same,"Readings Lows, 51-64 (as %)",[1]; Weekdays,3%
same,Average blood glucose by day of week,[1]; Weekends,92 mg/dL
same,"Readings In Target, 65-155 (as %)",[1]; Weekends,100%
same,Highest Blood Glucose,[1]; [12],127 mg/dL
same,Lowest Blood Glucose,[1]; [12],61 mg/dL
same,Average blood glucose,"[1]; early stage Type 2 diabetes, GNTI about 70 ng/kg weekly, overall, 15 days, 227 readings",92 mg/dL
same,Maintenance of blood glucose levels within the target range,"[1]; once weekly administration, target 65-155 mg/dL",aided in maintaining blood glucose levels within the target range
same,Reduction of BMI from baseline,[2],about 9%
same,Average body mass index (BMI),[2]; baseline BMI 25,22.8
same,Effect on glucagon after MTT,"[3]; both dosages (45 and 95 ng/kg), time points 60 and 120, all subjects tested",marked decrease in glucagon
same,BG,[3]; [13],83 mg/dL and 69 mg/dL and 51 mg/dL
same,GIP,[3]; [13],50 pg/mL and 8 pg/mL
same,GLP-1,[3]; [13],34 pmol/L and 19 pmol/L and 11 pmol/L
same,Glucagon,[3]; [13],411 pg/mL (2×) and 302 pg/mL
same,Insulin,[3]; [13],57 microU/mL and 23 microU/mL and 14 microU/mL
same,BG,[3]; [14],98 mg/dL and 70 mg/dL and 64 mg/dL
same,GIP,[3]; [14],640 pg/mL and 320 pg/mL and 650 pg/mL
same,GLP-1,[3]; [14],83 pmol/L and 49 pmol/L and 31 pmol/L
same,Glucagon,[3]; [14],366 pg/mL and 172 pg/mL and 267 pg/mL
same,Insulin,[3]; [14],396 microU/mL and 145 microU/mL and 122 microU/mL
same,BG,[3]; [15],61 mg/dL and 78 mg/dL and 76 mg/dL
same,GIP,[3]; [15],760 pg/mL and 775 pg/mL
same,GLP-1,[3]; [15],31 pmol/L and 82 pmol/L and 79 pmol/L
same,Glucagon,[3]; [15],261 pg/mL and 249 pg/mL and 122 pg/mL
same,Insulin,[3]; [15],200 microU/mL and 249 microU/mL and 137 microU/mL
same,Glucagon Change T0-T60/120,"[3]; Day 5, GNTI 45 ng/kg cumulative, T0 to T60 min",−11% and −43% and −35%
same,Glucagon Change T0-T60/120,"[3]; Day 5, GNTI 45 ng/kg cumulative, T0 to T120 min",−36% and −39% and −60%
same,BG,[3]; [16],56 mg/dL and 82 mg/dL and 73 mg/dL
same,GIP,[3]; [16],30 pg/mL and 25 pg/mL and 20 pg/mL
same,GLP-1,[3]; [16],28 pmol/L and 60 pmol/L and 67 pmol/L
same,Glucagon,[3]; [16],472 pg/mL and 487 pg/mL and 293 pg/mL
same,Insulin,[3]; [16],14 microU/mL and 71 microU/mL and 30 microU/mL
same,BG,[3]; [17],70 mg/dL and 106 mg/dL and 69 mg/dL
same,GIP,[3]; [17],675 pg/mL (2×) and 75 pg/mL
same,GLP-1,[3]; [17],35 pmol/L and 60 pmol/L
same,Glucagon,[3]; [17],240 pg/mL and 351 pg/mL and 107 pg/mL
same,Insulin,[3]; [17],100 microU/mL and 401 microU/mL and 54 microU/mL
same,BG,[3]; [18],63 mg/dL and 95 mg/dL and 86 mg/dL
same,GIP,[3]; [18],675 pg/mL and 775 pg/mL and 240 pg/mL
same,GLP-1,[3]; [18],223 pmol/L and 77 pmol/L
same,Glucagon,[3]; [18],271 pg/mL and 267 pg/mL and 108 pg/mL
same,Insulin,[3]; [18],54 microU/mL and 307 microU/mL and 71 microU/mL
same,Glucagon Change T0-T60/120,"[3]; Day 7, GNTI 95 ng/kg cumulative, T0 to T60 min",−49% and −28% and −63%
same,Glucagon Change T0-T60/120,"[3]; Day 7, GNTI 95 ng/kg cumulative, T0 to T120 min",−43% and −45% and −63%
